Test results taken from patent US4169096A, “Antibiotic compounds” (priority 1977, dated 1979).
Converted amounts (≈) assume the structure as drawn. Read-outs that look alike come from different tables or passages of the source.

Tests used:
[1] = system: Klebsiella pneumoniae A9678; assay: MIC, serial two-fold agar dilution, aerobic bacteria; type: cell-based
[2] = system: Serratia marcescens A20019; assay: as above; type: cell-based
[3] = system: Pseudomonas aeruginosa A9843; assay: as above; type: cell-based; conditions: test medium not given
[4] = system: Proteus mirabilis A9554; assay: as above; type: cell-based; conditions: Nutrient agar (Eiken)
[5] = system: Proteus morganii A9553; assay: as above; type: cell-based; conditions: Morganella morganii, Nutrient agar (Eiken)
[6] = system: Staphylococcus aureus 209P; assay: as above; type: cell-based; conditions: Nutrient agar (Eiken)
[7] = system: Staphylococcus aereus Smith; assay: as above; type: cell-based; conditions: Nutrient agar (Eiken), read-out: MIC
[8] = system: Staphylococcus aureus #52-34; assay: as above; type: cell-based; conditions: Nutrient agar (Eiken), read-out: MIC
[9] = system: Bacillus subtilis PCI-219; assay: as above; type: cell-based; conditions: PCI219, Nutrient agar (Eiken), read-out: MIC
[10] = system: Neisseria meningitidis A20049; assay: as above; type: cell-based
[11] = system: Neisseria gonorrhoeae A15112; assay: as above; type: cell-based; conditions: GC medium (Eiken)
[12] = system: Neisseria gonorrhoeae A20154; assay: as above; type: cell-based; conditions: GC medium (Eiken)
[13] = system: Hemophilus influenzae A20188; assay: as above; type: cell-based; conditions: Haemophilus influenzae, GC medium (Eiken)
[14] = system: Peptostreptococcus anaerobius B43; type: cell-based; conditions: GAM agar medium (Nissui)
[15] = system: C. perfringens A9635; assay: microbe, parasite or virus in culture; type: cell-based, Clostridium perfringens; conditions: inoculum size 7 × 10^6 cell/ml
[16] = system: B. fragilis A20928-1; assay: Bactericidal activity (MIC & MBC); type: cell-based; conditions: Bacteroides fragilis, A209281; inoculum size 2.8 × 10^6 cell/ml; broth
[17] = system: C. perfringens A9635; assay: microbe, parasite or virus in culture; type: cell-based; conditions: Clostridium perfringens, A9635, 18 h
[18] = system: S. pyogenes A20201; assay: Bactericidal activity (MIC & MBC); type: cell-based; conditions: Streptococcus pyogenes, A20201, inoculum size 6 × 10^5 cell/ml
[19] = system: B. fragilis A20926; assay: Localized infection with B. fragilis in mice; type: in vivo; conditions: for mean score: control 4.2; for sum of score: control 21; for infectivity level: control 100%
[20] = system: C. perfringens A9635; assay: animal or person; type: in vivo, mice; conditions: Clostridium perfringens, A9635, in Mus musculus, 120 h, read-out: PD50
[21] = system: S. pyogenes A20201; assay: Systemic infection with S. pyogenes in mice; type: in vivo; conditions: Streptococcus pyogenes, A20201, 120 h, just before challenge, determined after 5 days, read-out: PD50
[22] = system: C. perfringens or S. pyrogenes; type: in vivo, mice; conditions: mouse, in vivo
[23] = system: Bacteroides fragilis A20929; assay: microbe, parasite or virus in culture
[24] = system: Bacteroides fragilis A20930; assay: microbe, parasite or virus in culture
[25] = system: Bacteroides fragilis A20932; assay: microbe, parasite or virus in culture
[26] = system: Sphaerophorus pseudonecrophorus A20013; assay: microbe, parasite or virus in culture; conditions: Fusobacterium necrophorum
[27] = system: Fusobacterium mortiferum ATCC 9817; assay: microbe, parasite or virus in culture; conditions: ATCC9817
[28] = system: Fusobacterium varium ATCC 8501; assay: microbe, parasite or virus in culture; conditions: ATCC8501
[29] = system: Acidoaminococcus fermentans ATCC 25085; assay: microbe, parasite or virus in culture
[30] = system: Veillonella parvula ATCC 17745; assay: microbe, parasite or virus in culture; conditions: ATCC17745
[31] = system: Clostridium caproicum IAM 19228; assay: microbe, parasite or virus in culture; conditions: IAM19228
[32] = system: Peptocuccus prevotii ATCC 9321; assay: microbe, parasite or virus in culture
[33] = system: Peptococcus aerogenes ATCC 14963; assay: microbe, parasite or virus in culture; conditions: Peptoniphilus asaccharolyticus, ATCC14963
[34] = subcutaneous or oral
[35] = in vivo; conditions: mouse

With `CCC[C@@H]1C[C@@H](C(=O)N[C@@H]([C@H]2O[C@H](SC)[C@H](O)[C@@H](O)[C@H]2O)[C@H](C)Cl)N(C)C1` [Clindamycin] the MIC [1] was 100 mg/L (≈ 235 µM), the MIC [2] was 50 mg/L (≈ 118 µM) and the MIC [3] was > 100 mg/L. The MIC [4] was 100 mg/L (≈ 235 µM), the MIC [5] was 100 mg/L (≈ 235 µM) and the MIC [6] was 0.1 mg/L (≈ 0.235 µM). The MIC [7] was 0.1 mg/L (≈ 0.235 µM), the MIC [8] was 0.1 mg/L (≈ 0.235 µM) and the MIC [9] was 0.8 mg/L (≈ 1.88 µM). It also gave an MIC [10] of 0.05 mg/L (≈ 0.118 µM), an MIC [11] of 0.2 mg/L (≈ 0.471 µM) and an MIC [12] of 0.2 mg/L (≈ 0.471 µM). For the same molecule, the MIC [13] was 0.8 mg/L (≈ 1.88 µM), the MIC [14] was 0.8 mg/L (≈ 1.88 µM) and the “MIC in GAM agar” value [15] was 0.0125 mg/L (≈ 0.0294 µM). It also gave an MIC [16] of 0.05 mg/L (≈ 0.118 µM), an MBC [17] of 0.05 mg/L (≈ 0.118 µM) and an MIC ([18]; broth) of 0.05 mg/L (≈ 0.118 µM). For the same molecule, the MBC ([18]; growth of less than 100 colonies per plate, 18 hours at 37° C., read-out: MBC) was 6.3 mg/L (≈ 14.8 µM), the “comparative in vivo activity” value ([19]; B. fragilis localized infection) was “more active than Bu-2313B or Flagyl” and the mean score ([19]; oral, 6.3 × 5 mg/kg) was 2.6. For the same molecule, the sum of score ([19]; oral, 6.3 × 5 mg/kg) was 13, the infectivity level ([19]; oral, 6.3 × 5 mg/kg) was 61.9% and the mean score ([19]; oral, 25 × 5 mg/kg) was 1.8. The sum of score ([19]; oral, 25 × 5 mg/kg) was 9, the infectivity level ([19]; oral, 25 × 5 mg/kg) was 42.9% and the sum of score ([19]; oral, 100 × 5 mg/kg) was 2. It also gave an infectivity level ([19]; oral, 100 × 5 mg/kg) of 9.5%, a mean score ([19]; oral, […] 5 mg/kg) of 4.0 and a sum of score ([19]; oral, […] 5 mg/kg) of 20. For the same molecule, the infectivity level ([19]; oral, […] 5 mg/kg) was 95.2%, the mean score ([19]; subcutaneous, 0.8 × 5 mg/kg) was 4.0 and the sum of score ([19]; subcutaneous, 0.8 × 5 mg/kg) was 20. The infectivity level ([19]; subcutaneous, 0.8 × 5 mg/kg) was 95.2%, the mean score ([19]; subcutaneous, 3.1 × 5 mg/kg) was 2.0 and the sum of score ([19]; subcutaneous, 3.1 × 5 mg/kg) was 10. The infectivity level ([19]; subcutaneous, 3.1 × 5 mg/kg) was 47.6%, the mean score ([19]; subcutaneous, 50 × 5 mg/kg) was 0.8 and the sum of score ([19]; subcutaneous, 50 × 5 mg/kg) was 4. For the same molecule, the infectivity level ([19]; subcutaneous, 50 × 5 mg/kg) was 19.0%, the mean score ([19]; subcutaneous, […] 5 mg/kg) was 1.4 and the sum of score ([19]; subcutaneous, […] 5 mg/kg) was 7. The infectivity level ([19]; subcutaneous, […] 5 mg/kg) was 33.3%, the ED50 ([20]; po) was 0.22 mg/kg and the ED50 ([20]; sc) was 0.08 mg/kg. For the same molecule, the ED50 ([21]; po, NA: no activity) was 2.1 mg/kg, the ED50 ([21]; sc) was 0.3 mg/kg and the “comparative in vivo activity” value [22] was “the most active”. For the same molecule, the MIC [23] was 0.05 mg/L (≈ 0.118 µM), the MIC [24] was 0.05 mg/L (≈ 0.118 µM) and the MIC [25] was 0.05 mg/L (≈ 0.118 µM). The MIC [26] was 0.05 mg/L (≈ 0.118 µM), the MIC [27] was 0.05 mg/L (≈ 0.118 µM) and the MIC [28] was 0.05 mg/L (≈ 0.118 µM). The MIC [29] was 0.05 mg/L (≈ 0.118 µM), the MIC [30] was 0.05 mg/L (≈ 0.118 µM) and the MIC [31] was 0.1 mg/L (≈ 0.235 µM). It also gave an MIC [32] of 0.1 mg/L (≈ 0.235 µM) and an MIC [33] of 0.2 mg/L (≈ 0.471 µM).

For `Cc1ncc([N+](=O)[O-])n1CCO` [Flagyl], the mean score ([19]; oral, 6.3 × 5 mg/kg) was 3.4, the sum of score ([19]; oral, 6.3 × 5 mg/kg) was 17 and the infectivity level ([19]; oral, 6.3 × 5 mg/kg) was 81.0%. The mean score ([19]; oral, 25 × 5 mg/kg) was 2.6, the sum of score ([19]; oral, 25 × 5 mg/kg) was 13 and the infectivity level ([19]; oral, 25 × 5 mg/kg) was 61.9%. The mean score ([19]; oral, 100 × 5 mg/kg) was 1.6, the sum of score ([19]; oral, 100 × 5 mg/kg) was 8 and the infectivity level ([19]; oral, 100 × 5 mg/kg) was 38.1%. The mean score ([19]; oral, […] 5 mg/kg) was 4.0, the sum of score ([19]; oral, […] 5 mg/kg) was 20 and the infectivity level ([19]; oral, […] 5 mg/kg) was 95.2%. It also gave a mean score ([19]; subcutaneous, 0.8 × 5 mg/kg) of 4.0, a sum of score ([19]; subcutaneous, 0.8 × 5 mg/kg) of 20 and an infectivity level ([19]; subcutaneous, 0.8 × 5 mg/kg) of 95.2%. For the same molecule, the mean score ([19]; subcutaneous, 3.1 × 5 mg/kg) was 3.4, the sum of score ([19]; subcutaneous, 3.1 × 5 mg/kg) was 17 and the infectivity level ([19]; subcutaneous, 3.1 × 5 mg/kg) was 81.0%. For the same molecule, the mean score ([19]; subcutaneous, 50 × 5 mg/kg) was 2.0, the sum of score ([19]; subcutaneous, 50 × 5 mg/kg) was 10 and the infectivity level ([19]; subcutaneous, 50 × 5 mg/kg) was 47.6%. It also gave a mean score ([19]; subcutaneous, […] 5 mg/kg) of 2.4, a sum of score ([19]; subcutaneous, […] 5 mg/kg) of 12 and an infectivity level ([19]; subcutaneous, […] 5 mg/kg) of 57.1%. For the same molecule, the ED50 ([20]; po) was 60 mg/kg, the ED50 ([20]; sc) was 31 mg/kg and the “absorption compared with Bu-2313B” value [34] was “better absorptions than Bu-2313B”. The concentration at 0.5 h ([35]; po, 25 mg/kg) was 8.8 µg/mL, the concentration at 1 h ([35]; po, 25 mg/kg) was 6.7 µg/mL and the concentration at 3 h ([35]; po, 25 mg/kg) was 6.1 µg/mL. The concentration at 0.5 h ([35]; po, 50 mg/kg) was 20 µg/mL, the concentration at 1 h ([35]; po, 50 mg/kg) was 15 µg/mL and the concentration at 3 h ([35]; po, 50 mg/kg) was 11 µg/mL. For the same molecule, the concentration at 0.5 h ([35]; po, 100 mg/kg) was 56 µg/mL, the concentration at 1 h ([35]; po, 100 mg/kg) was 41 µg/mL and the concentration at 3 h ([35]; po, 100 mg/kg) was 24 µg/mL. It also gave a concentration at 5 h ([35]; po, 100 mg/kg) of 13 µg/mL, a concentration at 0.5 h ([35]; sc, 25 mg/kg) of 15 µg/mL and a concentration at 1 h ([35]; sc, 25 mg/kg) of 12 µg/mL. For the same molecule, the concentration at 2 h ([35]; sc, 25 mg/kg) was 8.3 µg/mL, the concentration at 0.5 h ([35]; sc, 50 mg/kg) was 32 µg/mL and the concentration at 1 h ([35]; sc, 50 mg/kg) was 26 µg/mL. The concentration at 2 h ([35]; sc, 50 mg/kg) was 12 µg/mL, the concentration at 0.5 h ([35]; sc, 100 mg/kg) was 121 µg/mL and the concentration at 1 h ([35]; sc, 100 mg/kg) was 98 µg/mL. The concentration at 2 h ([35]; sc, 100 mg/kg) was 40 µg/mL.
